Assay results from patent publication US20070155764A1, “NOVEL SUBSTITUTED PYRIMIDINYLOXY UREAS USEFUL AS INHIBITORS OF PROTEIN KINASES” (KALYPSYS, INC., priority 2005, published 2007).

Key:
Assay type in all cases: biochemical
PDGFRβ kinase = molecular target: T1, PDGFRβ kinase (Homo sapiens, UniProt P09619); experiment: In vitro PDGFRβ kinase assay; conditions: ADP Quest assay, poly Glu:Tyr substrate, 60 μM ATP
T1 construct: purchased Invitrogen Inc. P3082
Procedure: (§1) In vitro vegfr2 and PDGFRβ Kinase Assays
(§2) 2.5 μl of ADP Quest assay buffer (DiscoverX Inc., cat. #90-0071) containing 20 ng VEGFR2 kinase (Invitrogen Inc, cat. #PV3660) or 25 ng PDGFRβ kinase (Invitrogen Inc., cat. #P3082) is dispensed to wells of a 1536 multi-well, black solid plate. 60 nl of 100× concentration of test compound in DMSO is dispensed to the well by passive pin transfer and incubated for 10 minutes at room temperature (approx. 22° C.). 2.5 μl of ADP Quest assay buffer containing 0.25 μg of poly Glu:Tyr (4:1) substrate peptide (Upstate Inc., cat. #12-440) and 60 μM ATP is then dispensed and the kinase reaction allowed to incubate at 30° C. for 2 hours. The assay plates are sealed and maintained in a humidified environment. After the 2 hour incubation, 2 μl of ADP Quest assay reagent A, followed by 2 μl of assay reagent B, is added. After an additional 30 minute incubation at room temperature, fluorescence intensity is measured on a Molecular Devices Aquest multi-mode plate reader or other suitable plate reader (fluorescence excitation filter: 530/25 [Peak (nm)/FWHM passband (nm)]; dichroic beamsplitter: 561 nm longpass; fluorescence emission filter: 580/10 [Peak (nm)/FWHM passband (nm)]. The assay measures the conversion of a non-fluoresecent molecule to fluorescent resorutin, which correlates with kinase activity. Negative control activity is measured with DMSO lacking any test compound. The positive control is [N-(3-trifluoromethyl-4-chlorophenyl)-N′-(4-(2-methylcarbamoyl-pyridin-4-yl)oxyphenyl)urea], aka Bay 43-9006. Efficacy is measured as a percentage of positive control activity.

[1] = molecular target: T2, human B-Raf protein kinase (Homo sapiens, UniProt P15056); experiment: In vitro B-Raf/Mek1 composite kinase assay; conditions: recombinant GST-tagged human B-Raf (Δ1-415) with inactive Mek1, 2 μM ATP
T2 construct: GST (N); purchased Upstate Inc. 14-530 (B-Raf); 14-420 (Mek1)
T2 sequence (P15056 416-766): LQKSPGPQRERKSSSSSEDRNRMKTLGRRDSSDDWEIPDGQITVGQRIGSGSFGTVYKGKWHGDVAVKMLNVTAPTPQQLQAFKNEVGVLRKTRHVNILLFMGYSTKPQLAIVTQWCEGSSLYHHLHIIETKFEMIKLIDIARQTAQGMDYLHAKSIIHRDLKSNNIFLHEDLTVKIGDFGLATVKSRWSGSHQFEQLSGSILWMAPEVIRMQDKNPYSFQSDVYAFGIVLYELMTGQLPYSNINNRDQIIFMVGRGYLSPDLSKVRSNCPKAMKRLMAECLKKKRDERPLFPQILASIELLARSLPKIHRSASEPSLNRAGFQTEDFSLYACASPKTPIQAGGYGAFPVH
Procedure: In Vitro B-Raf/Mek1 Composite Kinase Assay
2.5 μl of B-Raf kinase buffer (20 mM MOPS [pH 7.2], 25 mM sodium glycerophosphate, 2 mM EGTA [pH 8.0], 1 mM sodium orthovanadate, 1 mM dithiothreitol, 10 mM MgCl2, 0.03% Brij-35, 0.3 mg/ml bovine serum albumin) containing 1 ng of recombinant, N-terminal GST-tagged human B-Raf protein kinase (Δ1-415, Upstate Inc., cat. #14-530) is dispensed to wells of a 1536 multi-well white solid plate. 60 nl of 100× concentration of test compound in DMSO is dispensed to the well by passive pin transfer and incubated for 15 minutes at room temperature (approx. 22° C.). […] The assay plates are sealed and maintained in a humidified environment. After 2 hours, 2.5 μl of PKLight protein kinase assay reagent (Cambrex, cat. #LT07-501) is dispensed. After an additional 5 minute incubation at room temperature, luminescence activity is measured on a Molecular Devices Analyst multi-mode plate reader or other suitable plate reader. Kinase inhibition results in less ATP depletion, and therefore increased luminescence signal. Negative control activity is measured with DMSO lacking any test compound. The positive control is [N-(3-trifluoromethyl-4-chlorophenyl)-N′-(4-(2-methylcarbamoyl-pyridin-4-yl)oxyphenyl)urea], aka Bay 43-9006. Efficacy is measured as a percentage of positive control activity.

VEGFR2 kinase = molecular target: T3, VEGFR2 kinase (Homo sapiens, UniProt P35968); experiment: In vitro VEGFR2 kinase assay; conditions: ADP Quest assay, poly Glu:Tyr substrate, 60 μM ATP
T3 construct: purchased Invitrogen Inc PV3660
T3 sequence (P35968 20-1356): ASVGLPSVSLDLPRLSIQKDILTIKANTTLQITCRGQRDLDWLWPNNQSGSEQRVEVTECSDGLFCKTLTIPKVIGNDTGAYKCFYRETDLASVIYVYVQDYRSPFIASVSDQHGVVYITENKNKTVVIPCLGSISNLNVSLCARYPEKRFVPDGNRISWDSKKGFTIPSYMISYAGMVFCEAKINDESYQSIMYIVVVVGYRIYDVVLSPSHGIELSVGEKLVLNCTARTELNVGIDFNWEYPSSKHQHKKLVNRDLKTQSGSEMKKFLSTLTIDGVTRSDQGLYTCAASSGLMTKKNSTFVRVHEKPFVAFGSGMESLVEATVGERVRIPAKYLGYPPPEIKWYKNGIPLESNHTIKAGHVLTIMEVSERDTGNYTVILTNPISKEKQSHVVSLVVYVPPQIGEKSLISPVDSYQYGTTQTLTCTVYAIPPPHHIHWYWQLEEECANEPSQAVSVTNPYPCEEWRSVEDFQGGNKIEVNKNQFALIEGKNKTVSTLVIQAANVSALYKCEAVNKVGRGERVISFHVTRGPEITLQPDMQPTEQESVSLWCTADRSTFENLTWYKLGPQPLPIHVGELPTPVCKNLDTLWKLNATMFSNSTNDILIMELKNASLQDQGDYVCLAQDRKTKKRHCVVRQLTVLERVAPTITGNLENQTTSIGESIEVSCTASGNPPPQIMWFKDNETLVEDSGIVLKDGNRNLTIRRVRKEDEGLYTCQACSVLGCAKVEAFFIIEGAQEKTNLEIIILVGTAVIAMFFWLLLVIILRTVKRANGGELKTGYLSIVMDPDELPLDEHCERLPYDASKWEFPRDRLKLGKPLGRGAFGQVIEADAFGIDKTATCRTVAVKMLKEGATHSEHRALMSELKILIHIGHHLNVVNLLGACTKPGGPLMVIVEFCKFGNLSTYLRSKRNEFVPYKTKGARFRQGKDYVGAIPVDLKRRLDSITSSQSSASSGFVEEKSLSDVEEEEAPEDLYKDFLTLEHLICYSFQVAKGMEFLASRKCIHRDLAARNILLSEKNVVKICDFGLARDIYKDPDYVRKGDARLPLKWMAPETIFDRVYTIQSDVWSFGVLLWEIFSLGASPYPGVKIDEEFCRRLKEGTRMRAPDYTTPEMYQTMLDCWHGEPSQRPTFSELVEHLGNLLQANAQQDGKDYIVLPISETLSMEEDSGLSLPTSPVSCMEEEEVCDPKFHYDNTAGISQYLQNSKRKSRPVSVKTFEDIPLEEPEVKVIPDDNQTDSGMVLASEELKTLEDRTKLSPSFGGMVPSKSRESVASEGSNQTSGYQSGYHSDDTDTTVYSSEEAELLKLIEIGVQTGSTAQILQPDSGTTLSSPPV
Procedure: as §1, §2

T1 sequence (P09619 33-1106): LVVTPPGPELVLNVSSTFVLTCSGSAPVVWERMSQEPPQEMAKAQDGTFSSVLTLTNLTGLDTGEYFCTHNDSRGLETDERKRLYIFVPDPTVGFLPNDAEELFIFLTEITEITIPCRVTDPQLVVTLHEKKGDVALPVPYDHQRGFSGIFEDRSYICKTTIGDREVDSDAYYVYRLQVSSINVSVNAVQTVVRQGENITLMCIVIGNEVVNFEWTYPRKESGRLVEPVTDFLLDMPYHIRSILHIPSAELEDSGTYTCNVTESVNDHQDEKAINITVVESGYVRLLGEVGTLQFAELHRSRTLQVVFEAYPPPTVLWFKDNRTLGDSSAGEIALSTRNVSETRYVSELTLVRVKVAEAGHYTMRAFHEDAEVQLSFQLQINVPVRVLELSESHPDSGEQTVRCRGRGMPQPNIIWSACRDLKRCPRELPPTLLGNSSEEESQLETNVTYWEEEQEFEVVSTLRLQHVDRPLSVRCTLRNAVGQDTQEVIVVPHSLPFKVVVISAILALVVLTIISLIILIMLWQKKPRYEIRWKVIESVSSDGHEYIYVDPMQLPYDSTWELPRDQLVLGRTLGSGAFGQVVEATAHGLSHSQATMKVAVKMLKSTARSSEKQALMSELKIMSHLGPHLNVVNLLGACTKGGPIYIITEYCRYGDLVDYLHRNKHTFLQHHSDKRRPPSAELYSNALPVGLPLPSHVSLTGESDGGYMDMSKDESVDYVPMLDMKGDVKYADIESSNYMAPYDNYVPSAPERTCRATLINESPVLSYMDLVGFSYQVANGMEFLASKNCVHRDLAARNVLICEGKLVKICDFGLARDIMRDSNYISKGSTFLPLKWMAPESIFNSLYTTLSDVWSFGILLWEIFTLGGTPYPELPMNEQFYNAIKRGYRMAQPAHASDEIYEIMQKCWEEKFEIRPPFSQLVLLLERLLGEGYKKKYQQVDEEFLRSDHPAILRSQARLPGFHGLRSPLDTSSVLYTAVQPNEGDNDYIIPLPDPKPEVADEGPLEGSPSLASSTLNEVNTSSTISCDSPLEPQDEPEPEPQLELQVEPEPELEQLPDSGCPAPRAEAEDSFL

SMILES	IC50 (PDGFRβ kinase)	IC50 [1]	IC50 (VEGFR2 kinase)
Cn1cc(-c2cc(Oc3ccc(NC(=O)Nc4ccc(Cl)c(C(F)(F)F)c4)cc3)ncn2)cn1 [Example 35, 1-(4-Chloro-3-(trifluoromethyl)phenyl)-3-(4-(6-(1-methyl-1H-pyrazol-4-yl)pyrimidin-4-yloxy)phenyl)urea]	≤ 10 µM	≤ 10 µM	≤ 10 µM
CN1CCN(Cc2cc(NC(=O)Nc3cccc(Oc4cc(-c5ncco5)ncn4)c3)cc(C(F)(F)F)c2)CC1 [Example 36, 1-(3-((4-Methylpiperazin-1-yl)methyl)-5-(trifluoromethyl)phenyl)-3-(3-(6-(oxazol-2-yl)pyrimidin-4-yloxy)phenyl)urea]	≤ 10 µM	≤ 10 µM	> 10 µM
O=C(Nc1cccc(Oc2ccnc(-c3nnco3)c2)c1)Nc1cc(C(F)(F)F)c(Cl)cc1OCCN1CCCC1 [Example 37, 1-(3-(2-(1,3,4-Oxadiazol-2-yl)pyridin-4-yloxy)phenyl)-3-(4-chloro-2-(2-(pyrrolidin-1-yl)ethoxy)-5-(trifluoromethyl)phenyl)urea]	≤ 10 µM	≤ 10 µM	≤ 10 µM
CN1CCN(Cc2cc(NC(=O)Nc3cccc(Oc4ccnc(-c5nnco5)c4)c3)cc(C(F)(F)F)c2)CC1 [Example 38, 1-(3-(2-(1,3,4-Oxadiazol-2-yl)pyridin-4-yloxy)phenyl)-3-(3-((4-methylpiperazin-1-yl)methyl)-5-(trifluoromethyl)phenyl)urea]	≤ 10 µM	≤ 10 µM	≤ 10 µM
CN1CCN(Cc2cc(NC(=O)Nc3ccc(Oc4ccnc(-c5nnco5)c4)cc3)cc(C(F)(F)F)c2)CC1 [Example 39, 1-(4-(2-(1,3,4-Oxadiazol-2-yl)pyridin-4-yloxy)phenyl)-3-(3-((4-methylpiperazin-1-yl)methyl)-5-(trifluoromethyl)phenyl)urea]	≤ 10 µM	≤ 10 µM	≤ 10 µM
O=C(Nc1cccc(Oc2cc(-c3ccn[nH]3)ncn2)c1)Nc1ccc(Cl)c(C(F)(F)F)c1 [Example 40, 1-(3-(6-(1H-Pyrazol-5-yl)pyrimidin-4-yloxy)phenyl)-3-(4-chloro-3-(trifluoromethyl)phenyl)urea]	≤ 10 µM	≤ 10 µM	≤ 10 µM
O=C(Nc1ccc(Oc2ccnc(-c3nnco3)c2)cc1)Nc1cc(C(F)(F)F)c(Cl)cc1OCCN1CCCC1 [Example 41, 1-(4-(2-(1,3,4-Oxadiazol-2-yl)pyridin-4-yloxy)phenyl)-3-(4-chloro-2-(2-(pyrrolidin-1-yl)ethoxy)-5-(trifluoromethyl)phenyl)urea]	≤ 10 µM	≤ 10 µM	≤ 10 µM
O=C(Nc1cccc(Oc2cc(-c3ccno3)ncn2)c1)Nc1ccc(Cl)c(C(F)(F)F)c1 [Example 42, 1-(4-chloro-3-(trifluoromethyl)phenyl)-3-(3-(6-(isoxazol-5-yl)pyrimidin-4-yloxy)phenyl)urea]	≤ 10 µM	≤ 10 µM	≤ 10 µM
O=C(Nc1ccc(Oc2ccnc(-c3nnco3)c2)cc1)Nc1cc(CN2CCOCC2)cc(C(F)(F)F)c1 [Example 43, 1-(4-(2-(1,3,4-Oxadiazol-2-yl)pyridin-4-yloxy)phenyl)-3-(3-(morpholinomethyl)-5-(trifluoromethyl)phenyl)urea]	≤ 10 µM	≤ 10 µM	≤ 10 µM
CN1CCC(Oc2cc(Cl)c(C(F)(F)F)cc2NC(=O)Nc2ccc(Oc3ccnc(-c4nnco4)c3)cc2)CC1 [Example 44]	≤ 10 µM	≤ 10 µM	≤ 10 µM
O=C(Nc1ccc(Cl)c(C(F)(F)F)c1)Nc1cc(Oc2cc(-c3nnco3)ncn2)c(F)cc1F [Example 45, 1-(5-(6-(1,3,4-Oxadiazol-2-yl)pyrimidin-4-yloxy)-2,4-difluorophenyl)-3-(4-chloro-3-(trifluoromethyl)phenyl)urea]	≤ 10 µM	≤ 10 µM	≤ 10 µM

The remaining lines, values ahead:

IC50 (PDGFRβ kinase)	IC50 [1]	IC50 (VEGFR2 kinase)	SMILES
≤ 10 µM	≤ 10 µM	≤ 10 µM	CN1CCN(Cc2cc(NC(=O)Nc3cccc(Oc4cc(-c5nnco5)ncn4)c3)cc(C(F)(F)F)c2)CC1 [Example 24, 1-(3-(6-(1,3,4-Oxadiazol-2-yl)pyrimidin-4-yloxy)phenyl)-3-(3-((4-methylpiperazin-1-yl)methyl)-5-(trifluoromethyl)phenyl)urea]
≤ 10 µM	≤ 10 µM	≤ 10 µM	CCN(CC)Cc1cc(NC(=O)Nc2cccc(Oc3cc(-c4nnco4)ncn3)c2)cc(C(F)(F)F)c1 [Example 25, 1-(3-(6-(1,3,4-Oxadiazol-2-yl)pyrimidin-4-yloxy)phenyl)-3-(3-((diethylamino)methyl)-5-(trifluoromethyl)phenyl)urea]
≤ 10 µM	≤ 10 µM	≤ 10 µM	O=C(Nc1cccc(Oc2cc(-c3nnco3)ncn2)c1)Nc1cc(C(F)(F)F)c(Cl)cc1OCCN1CCCC1 [Example 26, 1-(3-(6-(1,3,4-Oxadiazol-2-yl)pyrimidin-4-yloxy)phenyl)-3-(4-chloro-2-(2-(pyrrolidin-1-yl)ethoxy)-5-(trifluoromethyl)phenyl)urea]
≤ 10 µM	≤ 10 µM	≤ 10 µM	O=C(Nc1cccc(Oc2cc(-c3ccc[nH]3)ncn2)c1)Nc1ccc(Cl)c(C(F)(F)F)c1 [Example 27, 1-(3-(6-(1H-Pyrrol-2-yl)pyrimidin-4-yloxy)phenyl)-3-(4-chloro-3-(trifluoromethyl)phenyl)urea]
≤ 10 µM	≤ 10 µM	≤ 10 µM	O=C(Nc1ccc(Oc2cc(-c3ccc[nH]3)ncn2)cc1)Nc1ccc(Cl)c(C(F)(F)F)c1 [Example 28, 1-(4-(6-(1H-Pyrrol-2-yl)pyrimidin-4-yloxy)phenyl)-3-(4-chloro-3-(trifluoromethyl)phenyl)urea]
≤ 10 µM	≤ 10 µM	≤ 10 µM	Cc1nc(C)c(-c2cc(Oc3cccc(NC(=O)Nc4ccc(Cl)c(C(F)(F)F)c4)c3)ncn2)s1 [Example 29, 1-(4-Chloro-3-(trifluoromethyl)phenyl)-3-(3-(6-(2,4-dimethylthiazol-5-yl)pyrimidin-4-yloxy)phenyl)urea]
≤ 10 µM	> 10 µM	≤ 10 µM	Cc1nc(C)c(-c2cc(Oc3ccc(NC(=O)Nc4ccc(Cl)c(C(F)(F)F)c4)cc3)ncn2)s1 [Example 30, 1-(4-Chloro-3-(trifluoromethyl)phenyl)-3-(4-(6-(2,4-dimethylthiazol-5-yl)pyrimidin-4-yloxy)phenyl)urea]
≤ 10 µM	≤ 10 µM	≤ 10 µM	O=C(Nc1ccc(Oc2cc(-c3nnco3)ncn2)cc1)Nc1cc(C(F)(F)F)c(Cl)cc1OCCN1CCCC1 [Example 31, 1-(4-(6-(1,3,4-Oxadiazol-2-yl)pyrimidin-4-yloxy)phenyl)-3-(4-chloro-2-(2-(pyrrolidin-1-yl)ethoxy)-5-(trifluoromethyl)phenyl)urea]
≤ 10 µM	≤ 10 µM	≤ 10 µM	CCN(CC)CCNC(=O)c1cc(NC(=O)Nc2cccc(Oc3cc(-c4nnco4)ncn3)c2)cc(C(F)(F)F)c1 [Example 32, 3-(3-(3-(6-(1,3,4-Oxadiazol-2-yl)pyrimidin-4-yloxy)phenyl)ureido)-N-(2-(diethylamino)ethyl)-5-(trifluoromethyl)benzamide]
≤ 10 µM	≤ 10 µM	≤ 10 µM	O=C(Nc1cccc(Oc2cc(-c3nnco3)ncn2)c1)Nc1cc(CN2CCOCC2)cc(C(F)(F)F)c1 [Example 33, 1-(3-(6-(1,3,4-Oxadiazol-2-yl)pyrimidin-4-yloxy)phenyl)-3-(3-(morpholinomethyl)-5-(trifluoromethyl)phenyl)urea]
